Assay results reported in publication PMC6273578, “Design, Synthesis and Biological Evaluation of Benzohydrazide Derivatives Containing Dihydropyrazoles as Potential EGFR Kinase Inhibitors” (Molecules, 2016).

How the values were obtained:
HepG2 cells = assay: MTT antiproliferative assay, HepG2; type: cell-based, human; details: Homo sapiens, read-out: In vitro antiproliferative activity IC50, HepG2
Description: (§1) IC50 values of the test compounds against A549, MCF-7, Hela and HepG2 cells were obtained from State Key Laboratory of Pharmaceutical Biotechnology, Nanjing University, and were determined by a standard (MTT)-based colorimetric assay (Beyotime Inst. Biotech., Nanjing, China). Tumor cell lines were grown to mid-log phase and then diluted to […] making sure they were seeded in 96-well plates (Philas, Nanjing, China) at a density of 5 × 10^3–1 × 10^4 cells per well. The outer wells containing 1 × PBS solution of the plate are not used for the assay to avoid the possibility of edge effects. The plate was incubated at 37 °C in a 5% CO2 incubator in DMEM containing 10% fetal bovine serum (FBS, Gibco, Waltham, MA, USA) for 24 h. Then, we added a 100-μL series concentration of drug-containing medium into the wells to maintain the final concentration of drug as 100, 10, 1 and 0.1 μmol/L. After 12 h, cell survival was determined by the addition of a MTT (3-(4,5-dimethylthiazol-2-yl)-2,5-diphenyl trtrazolium bromide) solution (10 μL of 5 mg/mL MTT in 1 × PBS). We waited for 4 h proliferation, discarded the medium and quickly added 150 μL DMSO per well, shaking the plates well for 10 min to ensure complete dissolution. Optical absorbance was measured at 570 nm on a microplate reader (Bio-Rad, Hercules, CA, USA). Survival ratios are expressed in percentages with respect to untreated cells. The experiments were replicated at least three times to verify the methodology reproducibility when using the above-mentioned conditions.

A549 cells = assay: MTT antiproliferative assay, A549; type: cell-based, human; details: Homo sapiens, read-out: In vitro antiproliferative activity IC50, A549
Description: as §1

MCF-7 cells = assay: MTT antiproliferative assay, MCF-7; type: cell-based, human; details: Homo sapiens, MCF7, read-out: In vitro antiproliferative activity IC50, MCF-7
Description: as §1

[1] = Cytotoxicity test (MTT) on 293T cells; details: human, 293T human kidney epithelial cells
Description: The cytotoxic activity in vitro was measured by the colorimetric MTT assay. […] For the cytotoxicity assay, 20 μL of MTT (5 mg/mL) was added per well 4 h before the end of the incubation. After removing the supernatant, 200 μL DMSO was added to dissolve the formazan crystals. The absorbance at λ 570 nm was read on an LX300 Epson Diagnostic microplate reader, untreated cells were used as negative controls.

[2] = target: epidermal growth factor receptor (EGFR) (Homo sapiens, UniProt P00533); assay: EGFR kinase inhibition, solid-phase ELISA assay
Description: All these newly synthesized compounds were evaluated for their inhibitory activities against EGFR kinases using a solid-phase ELISA assay.
EGFR tyrosine kinase activity was determined by an enzyme linked-immunosorbent assay (ELISA) in 96-well plates precoated in a 10 mL reaction volume including 4 mL diluted test compounds, 4 mL substrate and 2 mL ATP. […] The plates were then aspirated and washed twice with 200 mL 0.9% (w/v) NaCl, and incorporation of Pi was determined with an LX300 Epson Diagnostic microplate reader. […] The experiments were replicated at least three times to verify the methodology reproducibility when using the above-mentioned conditions.

HeLa cells = assay: MTT antiproliferative assay, HeLa; type: cell-based, human; details: Homo sapiens, read-out: In vitro antiproliferative activity IC50, HeLa
Description: as §1

Sequence of epidermal growth factor receptor (EGFR) (P00533 25-1210): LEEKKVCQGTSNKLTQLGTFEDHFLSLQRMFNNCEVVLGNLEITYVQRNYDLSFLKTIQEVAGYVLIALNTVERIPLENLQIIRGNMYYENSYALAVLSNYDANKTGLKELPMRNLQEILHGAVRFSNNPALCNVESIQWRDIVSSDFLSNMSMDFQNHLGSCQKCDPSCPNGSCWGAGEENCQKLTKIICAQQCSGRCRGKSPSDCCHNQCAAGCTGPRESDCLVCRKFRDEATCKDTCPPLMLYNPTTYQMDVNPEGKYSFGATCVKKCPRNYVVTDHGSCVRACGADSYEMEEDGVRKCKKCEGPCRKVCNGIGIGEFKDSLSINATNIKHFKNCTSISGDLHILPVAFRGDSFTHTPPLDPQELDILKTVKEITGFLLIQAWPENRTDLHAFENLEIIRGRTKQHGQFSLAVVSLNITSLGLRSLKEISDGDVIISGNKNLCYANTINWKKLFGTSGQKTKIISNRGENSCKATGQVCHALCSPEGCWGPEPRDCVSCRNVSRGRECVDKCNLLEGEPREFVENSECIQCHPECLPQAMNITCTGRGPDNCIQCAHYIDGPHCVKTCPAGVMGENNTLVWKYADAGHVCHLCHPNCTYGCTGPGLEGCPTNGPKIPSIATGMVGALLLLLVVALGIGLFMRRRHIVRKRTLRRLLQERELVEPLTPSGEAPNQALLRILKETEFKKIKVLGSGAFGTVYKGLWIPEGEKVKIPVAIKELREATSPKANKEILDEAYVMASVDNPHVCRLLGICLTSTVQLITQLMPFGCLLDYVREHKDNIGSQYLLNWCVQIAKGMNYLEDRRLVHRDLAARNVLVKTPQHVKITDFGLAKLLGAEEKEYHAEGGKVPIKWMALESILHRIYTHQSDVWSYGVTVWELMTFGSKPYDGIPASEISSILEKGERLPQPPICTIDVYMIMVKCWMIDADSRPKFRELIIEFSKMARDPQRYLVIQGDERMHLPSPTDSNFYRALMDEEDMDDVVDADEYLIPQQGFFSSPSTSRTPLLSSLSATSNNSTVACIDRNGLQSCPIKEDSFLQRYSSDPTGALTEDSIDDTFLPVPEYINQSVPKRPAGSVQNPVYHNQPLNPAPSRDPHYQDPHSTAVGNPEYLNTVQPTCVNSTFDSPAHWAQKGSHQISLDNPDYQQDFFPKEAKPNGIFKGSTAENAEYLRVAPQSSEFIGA

IC50 (HepG2 cells) [µM]	IC50 (A549 cells) [µM]	melting point [°C]	IC50 (MCF-7 cells) [µM]	IC50 [2] [µM]	IC50 (HeLa cells) [µM]	Structure (SMILES)	CC50 at 24 h [1] [µM]
45.4	35.2	231 to 233	51.3	11.9	46.4	COc1cccc(/C=N/NC(=O)c2ccc(N3N=C(c4cccc(Cl)c4)CC3c3ccc4ccccc4c3)cc2)c1 (stereo not drawn) [Compound H13, (E)-4-(3-(3-Chlorophenyl)-5-(naphthalen-2-yl)-4,5-dihydro-1H-pyrazol-1-yl)-N′-(3-methoxybenzylidene)-benzohydrazide]	93.4
40.2	30.1	236 to 238	42.5	10.3	37.4	COc1cccc(/C=N/NC(=O)c2ccc(N3N=C(c4ccc(Cl)cc4)CC3c3ccc4ccccc4c3)cc2)c1 (stereo not drawn) [Compound H14, (E)-4-(3-(4-Chlorophenyl)-5-(naphthalen-2-yl)-4,5-dihydro-1H-pyrazol-1-yl)-N′-(3-methoxybenzylidene)-benzohydrazide]	90.1
38.9	26.6	234 to 236	35.2	9.87	33.6	COc1cccc(/C=N/NC(=O)c2ccc(N3N=C(c4ccc(Cl)c(Cl)c4)CC3c3ccc4ccccc4c3)cc2)c1 (stereo not drawn) [Compound H15, (E)-4-(3-(3,4-Dichlorophenyl)-5-(naphthalen-2-yl)-4,5-dihydro-1H-pyrazol-1-yl)-N′-(3-methoxy-benzylidene)benzohydrazide]	88.2
34.2	21.8	245 to 247	31.9	9.01	26.5	COc1cccc(/C=N/NC(=O)c2ccc(N3N=C(c4ccc(Br)cc4)CC3c3ccc4ccccc4c3)cc2)c1 (stereo not drawn) [Compound H16, (E)-4-(3-(4-Bromophenyl)-5-(naphthalen-2-yl)-4,5-dihydro-1H-pyrazol-1-yl)-N′-(3-methoxybenzylidene)-benzohydrazide]	81.9
89.5	75.7	237 to 239	93.2	24.6	94.1	COc1ccc(/C=N/NC(=O)c2ccc(N3N=C(c4cc(OC)c(OC)c(OC)c4)CC3c3ccc4ccccc4c3)cc2)cc1 (stereo not drawn) [Compound H23, (E)-N′-(4-Methoxybenzylidene)-4-(5-(naphthalen-2-yl)-3-(3,4,5-trimethoxyphenyl)-4,5-dihydro-1H-pyrazol-1-yl)benzohydrazide]	85.8
18.6	9.92	237 to 239	13.8	6.65	15.3	CCOc1ccc(C2=NN(c3ccc(C(=O)N/N=C/c4ccc(OC)cc4)cc3)C(c3ccc4ccccc4c3)C2)cc1 (stereo not drawn) [Compound H24, (E)-4-(3-(4-Ethoxyphenyl)-5-(naphthalen-2-yl)-4,5-dihydro-1H-pyrazol-1-yl)-N′-(4-methoxybenzylidene)-benzohydrazide]	81.3
71.1	48.6	244 to 246	65.5	15.3	61.9	COc1ccc(/C=N/NC(=O)c2ccc(N3N=C(c4ccccc4F)CC3c3ccc4ccccc4c3)cc2)cc1 (stereo not drawn) [Compound H25, (E)-4-(3-(2-Fluorophenyl)-5-(naphthalen-2-yl)-4,5-dihydro-1H-pyrazol-1-yl)-N′-(4-methoxybenzylidene)-benzohydrazide]	85.6
80.1	56.4	240 to 242	77.5	18.6	85.2	COc1ccc(/C=N/NC(=O)c2ccc(N3N=C(c4cccc(F)c4)CC3c3ccc4ccccc4c3)cc2)cc1 (stereo not drawn) [Compound H26, (E)-4-(3-(3-Fluorophenyl)-5-(naphthalen-2-yl)-4,5-dihydro-1H-pyrazol-1-yl)-N′-(4-methoxybenzylidene)-benzohydrazide]	94.3

Continued, compound first:

Structure (SMILES)	IC50 (HepG2 cells) [µM]	IC50 (A549 cells) [µM]	melting point [°C]	IC50 (MCF-7 cells) [µM]	IC50 [2] [µM]	IC50 (HeLa cells) [µM]	CC50 at 24 h [1] [µM]
COc1cccc(/C=N/NC(=O)c2ccc(N3N=C(c4cc(OC)c(OC)c(OC)c4)CC3c3ccc4ccccc4c3)cc2)c1 (stereo not drawn) [Compound H7, (E)-N′-(3-Methoxybenzylidene)-4-(5-(naphthalen-2-yl)-3-(3,4,5-trimethoxyphenyl)-4,5-dihydro-1H-pyrazol-1-yl)benzohydrazide]	> 100	78.3	230 to 232	95.3	26.9	> 100	92.9
CCOc1ccc(C2=NN(c3ccc(C(=O)N/N=C/c4cccc(OC)c4)cc3)C(c3ccc4ccccc4c3)C2)cc1 (stereo not drawn) [Compound H8, (E)-4-(3-(4-Ethoxyphenyl)-5-(naphthalen-2-yl)-4,5-dihydro-1H-pyrazol-1-yl)-N′-(3-methoxybenzylidene)-benzohydrazide]	19.8	10.7	233 to 235	15.9	7.2	17.1	79.7
COc1cccc(/C=N/NC(=O)c2ccc(N3N=C(c4ccccc4F)CC3c3ccc4ccccc4c3)cc2)c1 (stereo not drawn) [Compound H9, (E)-4-(3-(2-Fluorophenyl)-5-(naphthalen-2-yl)-4,5-dihydro-1H-pyrazol-1-yl)-N′-(3-methoxybenzylidene)-benzohydrazide]	76.5	50.6	235 to 237	70.4	16.2	63.8	83.4
COc1cccc(/C=N/NC(=O)c2ccc(N3N=C(c4cccc(F)c4)CC3c3ccc4ccccc4c3)cc2)c1 (stereo not drawn) [Compound H10, (E)-4-(3-(3-Fluorophenyl)-5-(naphthalen-2-yl)-4,5-dihydro-1H-pyrazol-1-yl)-N′-(3-methoxybenzylidene)-benzohydrazide]	92.5	58.6	241 to 243	80.1	20	84.1	95.8
COc1cccc(/C=N/NC(=O)c2ccc(N3N=C(c4ccc(F)cc4)CC3c3ccc4ccccc4c3)cc2)c1 (stereo not drawn) [Compound H11, (E)-4-(3-(4-Fluorophenyl)-5-(naphthalen-2-yl)-4,5-dihydro-1H-pyrazol-1-yl)-N′-(3-methoxybenzylidene)-benzohydrazide]	60.9	45.2	235 to 237	60.8	14.1	56.2	86.5
COc1cccc(/C=N/NC(=O)c2ccc(N3N=C(c4cc(F)cc(F)c4)CC3c3ccc4ccccc4c3)cc2)c1 (stereo not drawn) [Compound H12, (E)-4-(3-(3,5-Difluorophenyl)-5-(naphthalen-2-yl)-4,5-dihydro-1H-pyrazol-1-yl)-N′-(3-methoxybenzylidene) benzohydrazide]	52.3	41.5	225 to 227	55.6	12.8	50.3	80.2
C#Cc1cccc(Nc2ncnc3cc(OCCOC)c(OCCOC)cc23)c1 [Erlotinib, reference compound]	0.1	0.2	–	0.12	–	0.17	–
